A short description of this series: Subacute toxicity test, 14 consecutive days. The series is classed as in vivo. As to conditions: SD rats, 10 mg/kg once a day for 14 consecutive days, in words. The text has this: A proper amount of the compound in Embodiment 13 and a proper amount of the compound in Embodiment 14 were weighed by a balance and respectively placed into proper glass bottles, then DMSO, Solutol HS-15 and 0.9% physiological saline (in a ratio of v: v: v = 5%: 10%: 85%) were sequentially added into the glass bottles, and vortexed and stirred, and a drug dissolution condition was continuously concerned in the stirring process until the compounds were completely dissolved/suspended. Finally, drug solutions of the compound in Embodiment 13 and the compound in Embodiment 14 with a concentration of 0.67 mg/mL were prepared for current use.
An animal room was well ventilated, equipped with an air-conditioner, kept at a temperature of 20°C and 25°C and a humidity of 40% to 70%, and in light and dark conditions for 12 hours respectively, and the animals could eat and drink freely. SD rats with good physical signs could be selected for this experiment after being adaptively fed for at least 3 days before administration. Table 23 Source and number of experimental animals
Any operation on the experimental animals in this experiment met the requirements of the "Regulations for the Administration of Affairs Concerning Experimental Animals" issued by the Ministry of Science and Technology of the People's Republic of China. In this experiment, a solvent control group, an administration group of compound in Embodiment 13 and an administration group of compound in Embodiment 14 were set up. Administration dosages of the administration group of compound in Embodiment 13 and the administration group of compound in Embodiment 14 were (10 mg/kg) once a day for 14 consecutive days, while the same amount of blank solvent was given to the blank control group, and administration volumes were all 15 mL/kg. After each administration, symptoms and degrees of toxic reaction of the animals were observed. Recovery observation was carried out for 7 days after the last administration. […]
During the experiment, experimenters and veterinarians should observe physical signs and health conditions of the experimental animals continuously. Any abnormal manifestations of the animals, such as pain, depression and decreased activity should be recorded in original records of the experiment. […]
During the experiment, all animals were observed beside cages at least twice a day, and observed continuously for 2 hours after the drug administration. During the drug administration, if the animals had serious side effects or died, observation results should be recorded in a corresponding form. […]
The animals should be weighed before daily drug administration for 14 consecutive days, and the weights were recorded in a corresponding form. Food intakes of the experimental animals were detected during the experiment. […]

With `O=C(O)CNC(=O)c1c(O)cc(C2CCc3ccccc3C2)n2ncnc12` (single isomer, unassigned) [Compound in Embodiment 13, [(7-hydroxy-5-(1,2,3,4-tetrahydronaphthalene-2-yl)-[1,2,4]triazolo[1,5-a]pyridine-8-carbonyl)amino]acetic acid], the gastrointestinal findings entry was “no obvious gastrointestinal necrosis, and bleeding spots or flatulence in a black stomach part”. Moreover, under “compared with Enarodustat”, the toxicities entry is reported as “lower than that of Enarodustat”.
